Reference: PubChem BioAssay (NCI)
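The compound was tested at five concentrations on cells cultured in 96-well plates, with a 48-hour exposure period. TGI is the concentration that stops growth completely.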

What was measured:
Assay in all cases: NCI tumour cell line growth inhibition, 48 h
OVCAR-3 ovarian = test system: OVCAR-3 ovarian
M19-MEL melanoma = test system: M19-MEL melanoma
NCI-H23 lung = test system: NCI-H23 lung
LXFL 529 NSCLC = test system: LXFL 529 NSCLC
SF-268 CNS = test system: SF-268 CNS
SW-620 colon = test system: SW-620 colon
COLO 205 colon = test system: COLO 205 colon
SF-295 CNS = test system: SF-295 CNS
RXF 393 renal = test system: RXF 393 renal
786-0 renal = test system: 786-0 renal
A498 renal = test system: A498 renal
MOLT-4 leukemia = test system: MOLT-4 leukemia
CAKI-1 renal = test system: CAKI-1 renal
HCT-116 colon = test system: HCT-116 colon
A549 NSCLC = test system: A549 NSCLC
NCI-H522 lung = test system: NCI-H522 lung
TK-10 renal = test system: TK-10 renal
IGROV1 ovarian = test system: IGROV1 ovarian
ACHN renal = test system: ACHN renal
HCT-15 colon = test system: HCT-15 colon
HOP-92 NSCLC = test system: HOP-92 NSCLC
HL-60(TB) leukemia = test system: HL-60(TB) leukemia
HT29 colon = test system: HT29 colon
DMS 273 small cell lung = test system: DMS 273 small cell lung
DMS 114 small cell lung = test system: DMS 114 small cell lung
SNB-19 CNS = test system: SNB-19 CNS
U251 CNS = test system: U251 CNS
OVCAR-8 ovarian = test system: OVCAR-8 ovarian
SK-OV-3 ovarian = test system: SK-OV-3 ovarian
SN12C renal = test system: SN12C renal
SF-539 CNS = test system: SF-539 CNS
K-562 leukemia = test system: K-562 leukemia
M14 melanoma = test system: M14 melanoma
OVCAR-4 ovarian = test system: OVCAR-4 ovarian
SNB-75 CNS = test system: SNB-75 CNS
MALME-3M melanoma = test system: MALME-3M melanoma
CCRF-CEM leukemia = test system: CCRF-CEM leukemia
KM12 colon = test system: KM12 colon
RPMI-8226 leukemia = test system: RPMI-8226 leukemia
HOP-18 NSCLC = test system: HOP-18 NSCLC
OVCAR-5 ovarian = test system: OVCAR-5 ovarian
SK-MEL-28 melanoma = test system: SK-MEL-28 melanoma
UO-31 renal = test system: UO-31 renal
LOX IMVI melanoma = test system: LOX IMVI melanoma
HCC-2998 colon = test system: HCC-2998 colon
SK-MEL-5 melanoma = test system: SK-MEL-5 melanoma
UACC-62 melanoma = test system: UACC-62 melanoma
HOP-62 NSCLC = test system: HOP-62 NSCLC
DLD-1 colon = test system: DLD-1 colon
SK-MEL-2 melanoma = test system: SK-MEL-2 melanoma
NCI-H460 lung = test system: NCI-H460 lung
UACC-257 melanoma = test system: UACC-257 melanoma
SR leukemia = test system: SR leukemia
NCI-H226 lung = test system: NCI-H226 lung

Measured: TGI

CC(C1=CC=C2[C@@H]3CCC4CC(N(C)C)CC[C@]4(C)C3CC[C@]12C)N(C)C=O (stereo partly specified)
not listed: NCI-H460 lung | UACC-257 melanoma | SR leukemia | NCI-H226 lung
> 100 µM: all other assays above

Cc1nc2ccccc2c(=O)n1NC(=S)Nc1ccccc1
not listed: OVCAR-3 ovarian | SNB-19 CNS | HCC-2998 colon
> 100 µM: all other assays above
